From US12630547B2, “RAS protein degraders, pharmaceutical compositions thereof, and their therapeutic applications” (BioTheryX, Inc., priority 2019, dated 2026)

Assays:
Format in all cases: cell-based
H23 cells = assay: Cell viability assay (CELLTITER-GLO), H23 cells; conditions: Table 4; 3 days
Summary of the method: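 H23 cells in RPMI 1640 with 10% FBS, 4,000 cells/well, exposed to compound or DMSO for 3 days at 37° C, 5% CO2. Viability read by CellTiter-Glo luminescence after 10 min. IC50 reported in potency bins.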

MOLM-13 cells = assay: Cell viability assay (CELLTITER-GLO), MOLM-13 cells; conditions: Homo sapiens, MOLM-13, 72 h; Table 2; compound at 10 μM, 3 days; read-out: Effect on MOLM-13 cell viability (% DMSO)
Summary of the method: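 MV-4-11 and MOLM-13 cells in RPMI 1640/10% FBS were seeded at 4,000 cells/well and exposed to compound (10 μM or 1 μM) or DMSO for 3 days at 37 °C, 5% CO2. CellTiter-Glo luminescence gave viability as % DMSO, binned into ranges A (<10%) through D (≥50%).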

H358 cells = assay: Cell viability assay (CELLTITER-GLO), H358 cells; conditions: Table 4; 3 days
Summary of the method: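 H358 cells (RPMI 1640, 10% FBS), 4,000 per well, exposed to compound for 3 days at 37 °C, 5% CO2; viability by CellTiter-Glo luminescence. Single-dose viability as % DMSO at 10 or 1 μM, binned A (<10%) to D (≥50%); IC50 binned A (≤1 μM) to D (>10 μM).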

In the case of `C=CC(=O)N1CCN(c2ncnc3c(F)c(-c4c(F)cccc4OCCCNCc4ccc(COc5cccc6c5CN([C@H]5CCC(=O)NC5=O)C6=O)cc4)c(Cl)cc23)CC1` [Compound 62, (3S)-3-(4-((4-(((3-(2-(4-(4-Acryloylpiperazin-1-yl)-6-chloro-8-fluoroquinazolin-7-yl)-3-fluorophenoxy)propyl)amino)methyl)benzyl)oxy)-1-oxoisoindolin-2-yl)piperidine-2,6-dione], the “Inhibition of H23 cells, IC50 (class)” value (H23 cells) is reported as “B′”, the viability at 10 µM (MOLM-13 cells) is reported as under 10% and the “Inhibition of H358 cells, IC50 (class)” value (H358 cells) is reported as “B′”.

With `C=CC(=O)N1C[C@H](C)N(c2nc(OCCOCCOCCOCCNc3cccc4c3C(=O)N(C3CCC(=O)NC3=O)C4=O)nc3c(F)c(-c4c(O)cccc4F)c(Cl)cc23)C[C@H]1C` (stereo partly drawn) [Compound 58, 4-((2-(2-(2-(2-((4-((2S,5R)-4-Acryloyl-2,5-dimethylpiperazin-1-yl)-6-chloro-8-fluoro-7-(2-fluoro-6-hydroxyphenyl)quinazolin-2-yl)oxy)ethoxy)ethoxy)ethoxy)ethyl)amino)-2-(2,6-dioxopiperidin-3-yl)isoindoline-1,3-dione] the “Inhibition of H23 cells, IC50 (class)” value (H23 cells) was “B′”, the viability at 10 µM (MOLM-13 cells) was under 10% and the “Inhibition of H358 cells, IC50 (class)” value (H358 cells) was “B′”.

For `CCC(=O)N1C[C@@H]2C(=O)N(CCCCCCCN3CCC(c4cc(F)cc5c4CN(C4CCC(=O)NC4=O)C5=O)CC3)c3cnc4c(F)c(-c5c(O)cccc5F)c(Cl)cc4c3N2C[C@H]1C` (stereo partly drawn) [Compound 67, 3-(4-(1-(7-((2R,4aR)-11-Chloro-9-fluoro-10-(2-fluoro-6-hydroxyphenyl)-2-methyl-5-oxo-3-propionyl-1,2,3,4,4a,5-hexahydro-6H-pyrazino[11′,2′:4,5]pyrazino[2,3-c]quinolin-6-yl)heptyl)piperidin-4-yl)-6-fluoro-1-oxoisoindolin-2-yl)piperidine-2,6-dione], the “Inhibition of H23 cells, IC50 (class)” value (H23 cells) was “B′”, the viability at 10 µM (MOLM-13 cells) was under 10% and the “Inhibition of H358 cells, IC50 (class)” value (H358 cells) was “B′”.

`C=C(Cl)C(=O)N1CCN(c2ncnc3c(F)c(-c4c(F)cccc4OCCN4CCC(CCN5CCC(c6cc(F)cc7c6CN(C6CCC(=O)NC6=O)C7=O)CC5)CC4)c(Cl)cc23)CC1` (stereo not drawn) [Compound 120, 3-(4-(1-(2-(1-(2-(2-(6-Chloro-4-(4-(2-chloroacryloyl)piperazin-1-yl)-8-fluoroquinazolin-7-yl)-3-fluorophenoxy)ethyl)piperidin-4-yl)ethyl)piperidin-4-yl)-6-fluoro-1-oxoisoindolin-2-yl)piperidine-2,6-dione] was tested, and the “Inhibition of H23 cells, IC50 (class)” value (H23 cells) was “B′”, the viability at 10 µM (MOLM-13 cells) was under 10% and the “Inhibition of H358 cells, IC50 (class)” value (H358 cells) was “B′”.

In the case of `CCC(=O)N1CCN(c2ncnc3c(Cl)c(-c4c(F)cccc4OCCCCCCCCN4CCC(c5cc(F)cc6c5CN(C5CCC(=O)NC5=O)C6=O)CC4)c(F)cc23)CC1` (stereo not drawn) [Compound 20, 3-(4-(1-(8-(2-(8-Chloro-6-fluoro-4-(4-propionylpiperazin-1-yl)quinazolin-7-yl)-3-fluorophenoxy)octyl)piperidin-4-yl)-6-fluoro-1-oxoisoindolin-2-yl)piperidine-2,6-dione], the “Inhibition of H23 cells, IC50 (class)” value (H23 cells) is reported as “B′”, the viability at 10 µM (MOLM-13 cells) is reported as under 10% and the “Inhibition of H358 cells, IC50 (class)” value (H358 cells) is reported as “B′”.

In the case of `CCC(=O)N1CCN(c2nc(OC[C@@H]3CCCN3C)nc3c(F)c(-c4c(F)cccc4OCCCCCCCN4CCC(c5cc(F)cc6c5CN(C5CCC(=O)NC5=O)C6=O)CC4)c(Cl)cc23)CC1` (stereo partly drawn) [Compound 89, 3-(4-(1-(7-(2-(6-Chloro-8-fluoro-2-(((S)-1-methylpyrrolidin-2-yl)methoxy)-4-(4-propionylpiperazin-1-yl)quinazolin-7-yl)-3-fluorophenoxy)heptyl)piperidin-4-yl)-6-fluoro-1-oxoisoindolin-2-yl)piperidine-2,6-dione], the “Inhibition of H23 cells, IC50 (class)” value (H23 cells) is reported as “B′”, the viability at 10 µM (MOLM-13 cells) is reported as under 10% and the “Inhibition of H358 cells, IC50 (class)” value (H358 cells) is reported as “B′”.

For `C=C(Cl)C(=O)N1CCN(c2nc(OC[C@@H]3CCCN3C)nc3c(F)c(-c4c(F)cccc4OCCCCCCCN4CCC(c5cc(F)cc6c5CN(C5CCC(=O)NC5=O)C6=O)CC4)c(Cl)cc23)C[C@H]1CC#N` (stereo partly drawn) [Compound 128, 2-((2R)-4-(6-Chloro-7-(2-((7-(4-(2-(2,6-dioxopiperidin-3-yl)-6-fluoro-1-oxoisoindolin-4-yl)piperidin-1-yl)heptyl)oxy)-6-fluorophenyl)-8-fluoro-2-(((S)-1-methylpyrrolidin-2-yl)methoxy)quinazolin-4-yl)-1-(2-chloroacryloyl)piperazin-2-yl)acetonitrile], the “Inhibition of H23 cells, IC50 (class)” value (H23 cells) was “A′”, the viability at 10 µM (MOLM-13 cells) was under 10% and the “Inhibition of H358 cells, IC50 (class)” value (H358 cells) was “A′”.

With `CCC(=O)N1CCN(c2ncnc3c(F)c(-c4c(F)cccc4OCCCCCCCN4CCC(c5cc(F)cc6c5CN(C5CCC(=O)NC5=O)C6=O)CC4)c(Cl)cc23)[C@@H](C)C1` (stereo partly drawn) [Compound 85, 3-(4-(1-(7-(2-(6-Chloro-8-fluoro-4-((S)-2-methyl-4-propionylpiperazin-1-yl)quinazolin-7-yl)-3-fluorophenoxy)heptyl)piperidin-4-yl)-6-fluoro-1-oxoisoindolin-2-yl)piperidine-2,6-dione] the “Inhibition of H23 cells, IC50 (class)” value (H23 cells) was “B′”, the viability at 10 µM (MOLM-13 cells) was under 10% and the “Inhibition of H358 cells, IC50 (class)” value (H358 cells) was “B′”.

With `C=C(Cl)C(=O)N1CCN(c2nc(=O)n(-c3ccccc3C(C)C)c3nc(-c4c(F)cccc4OCCCCCCCN4CCC(c5cc(F)cc6c5CN(C5CCC(=O)NC5=O)C6=O)CC4)c(F)cc23)[C@@H](C)C1` (stereo partly drawn) [Compound 100, 3-(4-(1-(7-(2-(4-((S)-4-(2-Chloroacryloyl)-2-methylpiperazin-1-yl)-6-fluoro-1-(2-isopropylphenyl)-2-oxo-1,2-dihydropyrido[2,3-d]pyrimidin-7-yl)-3-fluorophenoxy)heptyl)piperidin-4-yl)-6-fluoro-1-oxoisoindolin-2-yl)piperidine-2,6-dione] the “Inhibition of H23 cells, IC50 (class)” value (H23 cells) was “A′”, the viability at 10 µM (MOLM-13 cells) was under 10% and the “Inhibition of H358 cells, IC50 (class)” value (H358 cells) was “A′”.

In the case of `C=C(Cl)C(=O)N1CCN(c2ncnc3c(F)c(-c4c(F)cccc4OCCC4CCC(CCN5CCC(c6cc(F)cc7c6CN(C6CCC(=O)NC6=O)C7=O)CC5)CC4)c(Cl)cc23)C[C@H]1CC#N` (stereo partly drawn) [Compound 129, 2-((2R)-4-(6-Chloro-7-(2-(2-(4-(2-(4-(2-(2,6-dioxopiperidin-3-yl)-6-fluoro-1-oxoisoindolin-4-yl)piperidin-1-yl)ethyl)cyclohexyl)ethoxy)-6-fluorophenyl)-8-fluoroquinazolin-4-yl)-1-(2-chloroacryloyl)piperazin-2-yl)acetonitrile], the “Inhibition of H23 cells, IC50 (class)” value (H23 cells) is reported as “B′”, the viability at 10 µM (MOLM-13 cells) is reported as under 10% and the “Inhibition of H358 cells, IC50 (class)” value (H358 cells) is reported as “A′”.

With `C=C(Cl)C(=O)N1CCN(c2ncnc3c(F)c(-c4c(F)cccc4OCCOCc4ccc(COCCN5CCC(c6cc(F)cc7c6CN(C6CCC(=O)NC6=O)C7=O)CC5)cc4)c(Cl)cc23)CC1` (stereo not drawn) [Compound 101, 3-(4-(1-(2-((4-((2-(2-(6-Chloro-4-(4-(2-chloroacryloyl)piperazin-1-yl)-8-fluoroquinazolin-7-yl)-3-fluorophenoxy)ethoxy)methyl)benzyl)oxy)ethyl)piperidin-4-yl)-6-fluoro-1-oxoisoindolin-2-yl)piperidine-2,6-dione] the “Inhibition of H23 cells, IC50 (class)” value (H23 cells) was “A′”, the viability at 10 µM (MOLM-13 cells) was under 10% and the “Inhibition of H358 cells, IC50 (class)” value (H358 cells) was “A′”.

For `C=CC(=O)N1CCN(c2nc(=O)n(-c3c(C)ccnc3C(C)C)c3nc(-c4c(F)cccc4OCCCCCCCN4CCC(c5cc(F)cc6c5CN(C5CCC(=O)NC5=O)C6=O)CC4)c(F)cc23)[C@@H](C)C1` (stereo partly drawn) [Compound 124, 3-(4-(1-(7-(2-(4-((S)-4-Acryloyl-2-methylpiperazin-1-yl)-6-fluoro-1-(2-isopropyl-4-methylpyridin-3-yl)-2-oxo-1,2-dihydropyrido[2,3-d]pyrimidin-7-yl)-3-fluorophenoxy)heptyl)-piperidin-4-yl)-6-fluoro-1-oxoisoindolin-2-yl)piperidine-2,6-dione], the “Inhibition of H23 cells, IC50 (class)” value (H23 cells) was “B′”, the viability at 10 µM (MOLM-13 cells) was under 10% and the “Inhibition of H358 cells, IC50 (class)” value (H358 cells) was “A′”.

In the case of `CCC(=O)N1CCN(c2ncnc3c(F)c(-c4c(F)cccc4OCCCCCCCN4CCC(c5cc6c(cc5F)C(=O)N(C5CCC(=O)NC5=O)C6)CC4)c(Cl)cc23)CC1` (stereo not drawn) [Compound 93, 3-(5-(1-(7-(2-(6-Chloro-8-fluoro-4-(4-propionylpiperazin-1-yl)quinazolin-7-yl)-3-fluorophenoxy)heptyl)piperidin-4-yl)-6-fluoro-1-oxoisoindolin-2-yl)piperidine-2,6-dione], the “Inhibition of H23 cells, IC50 (class)” value (H23 cells) is reported as “B′”, the viability at 10 µM (MOLM-13 cells) is reported as under 10% and the “Inhibition of H358 cells, IC50 (class)” value (H358 cells) is reported as “B′”.

`O=C1CCC(N2Cc3c(cc(F)cc3C3CCN(CCCCCCCOc4cccc(F)c4-c4c(Cl)cc5c(N6CCN(C(=O)C7CCNC7)CC6)ncnc5c4F)CC3)C2=O)C(=O)N1` (stereo not drawn) [Compound 79, 3-(4-(1-(7-(2-(6-Chloro-8-fluoro-4-(4-(pyrrolidine-3-carbonyl)piperazin-1-yl)quinazolin-7-yl)-3-fluorophenoxy)heptyl)piperidin-4-yl)-6-fluoro-1-oxoisoindolin-2-yl)piperidine-2,6-dione] was tested, and the “Inhibition of H23 cells, IC50 (class)” value (H23 cells) was “B′”, the viability at 10 µM (MOLM-13 cells) was under 10% and the “Inhibition of H358 cells, IC50 (class)” value (H358 cells) was “B′”.

In the case of `C=C(Cl)C(=O)N1CCN(c2ncnc3c(F)c(-c4c(F)cccc4OCCc4ccc(CCN5CCC(c6cc(F)cc7c6CN(C6CCC(=O)NC6=O)C7=O)CC5)cc4)c(Cl)cc23)CC1` (stereo not drawn) [Compound 111, 3-(4-(1-(4-(2-(2-(6-Chloro-4-(4-(2-chloroacryloyl)piperazin-1-yl)-8-fluoroquinazolin-7-yl)-3-fluorophenoxy)ethyl)phenethyl)piperidin-4-yl)-6-fluoro-1-oxoisoindolin-2-yl)piperidine-2,6-dione], the “Inhibition of H23 cells, IC50 (class)” value (H23 cells) is reported as “A′”, the viability at 10 µM (MOLM-13 cells) is reported as under 10% and the “Inhibition of H358 cells, IC50 (class)” value (H358 cells) is reported as “B′”.
